Series [1] has as its target T1, hormone-sensitive lipase (HSL) (Rattus norvegicus, UniProt P15304).
T1 construct: Isolated rat fat cells are obtained from epididymal adipose tissue from untreated male rats; from tissue; host or cells: rat (Wistar) epididymal adipose tissue, isolated fat cells
T1 sequence (P15304 1-768 isoform P15304-2): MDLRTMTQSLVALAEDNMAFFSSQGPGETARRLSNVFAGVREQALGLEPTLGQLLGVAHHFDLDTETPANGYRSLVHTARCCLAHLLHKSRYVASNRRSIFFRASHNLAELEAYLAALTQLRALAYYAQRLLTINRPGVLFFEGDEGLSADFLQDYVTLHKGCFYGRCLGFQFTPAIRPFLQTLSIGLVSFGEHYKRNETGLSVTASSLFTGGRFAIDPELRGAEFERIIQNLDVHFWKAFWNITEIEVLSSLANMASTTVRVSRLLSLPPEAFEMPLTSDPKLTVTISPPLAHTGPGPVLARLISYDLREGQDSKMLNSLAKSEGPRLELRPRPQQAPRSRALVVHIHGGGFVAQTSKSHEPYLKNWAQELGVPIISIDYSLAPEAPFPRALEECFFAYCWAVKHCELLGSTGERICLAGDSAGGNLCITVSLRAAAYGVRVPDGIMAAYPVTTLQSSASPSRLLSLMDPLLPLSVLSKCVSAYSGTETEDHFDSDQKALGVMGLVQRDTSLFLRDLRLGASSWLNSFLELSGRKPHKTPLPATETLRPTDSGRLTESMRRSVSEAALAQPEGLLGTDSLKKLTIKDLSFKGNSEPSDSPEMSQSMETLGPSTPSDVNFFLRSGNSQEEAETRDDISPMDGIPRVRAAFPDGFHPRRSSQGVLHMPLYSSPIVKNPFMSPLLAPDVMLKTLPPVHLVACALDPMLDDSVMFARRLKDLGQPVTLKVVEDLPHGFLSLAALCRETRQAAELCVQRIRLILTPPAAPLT
The experiment in a line: HSL enzyme assay (NAG assay) with partially purified HSL. In kind it is biochemical. To be noted: inhibition of HSL enzymatic activity; partially purified HSL from rat fat cells; NAG substrate; 30° C., 60 min. How it is done:
The effect of the compounds of the invention of the formula I is tested in the following enzyme assay system: […]
Preparation of the Partially Purified HSL:
Isolated rat fat cells are obtained from epididymal adipose tissue from untreated male rats (Wistar, 220-250 g) by collagenase treatment in accordance with published methods (e.g. S, Nilsson et al., Anal. Biochem. 158, 1986, 399-407; G. Fredrikson et al., J. Biol. Chem. 256, 1981, 6311-6320; H. Tornquist et al., J. Biol. Chem. 251, 1976, 813-819). The fat cells from 10 rats are washed three times by flotation with 50 ml of homogenization buffer ([…] Tris/HCl, pH 7.4, 0.25 M sucrose, 1 mM EDTA, 1 mM DTT, 10 μg/ml leupeptin, 10 μg/ml antipain, 20 μg/ml pepstatin) each time and finally taken up in 10 ml of homogenization buffer. The fat cells are homogenized in a Teflon-in-glass homogenizer (Braun-Melsungen) by 10 strokes at 1500 rpm and 15° C. The homogenate is centrifuged (Sorvall SM24 tubes, 5000 rpm, 10 min, 4° C.). The subnatant between the layer of fat at the top and the pellet is removed and the centrifugation is repeated. The subnatant resulting therefrom is centrifuged again (Sorvall SM24 tubes, 20 000 rpm, 45 min, 4° C.). […] After incubation at 4° C. for 60 min (shaking at intervals of 15 min), the mixture is centrifuged (Sorvall SM24 tubes, 3000 rpm, 10 min, 4° C.). The supernatant is adjusted to pH 5.2 by adding glacial acetic acid and is incubated at 4° C. for 30 min. The precipitates are collected by centrifugation (Sorvall SS34, 12 000 rpm, 10 min, 4° C.) and suspended in 2.5 ml of 20 mM Tris/HCl, pH 7.0, 1 mM EDTA, 65 mM NaCl, 13% sucrose, 1 mM DTT, 10 μg/ml leupeptin/pepstatin/antipain. The suspension is dialyzed against 25 mM Tris/HCl, pH 7.4, 50% glycerol, 1 mM DTT, 10 μg/ml leupeptin, pepstatin, antipain at 4° C. overnight and then loaded onto a hydroxiapatite column (0.1 g per 1 ml of suspension, equilibrated with 10 mM potassium phosphate, pH 7.0, 30% glycerol, 1 mM DTT). The column is washed with four volumes of equilibration buffer at a flow rate of 20 to 30 ml/h. The HSL is eluted with one volume of equilibration buffer containing 0.5 M potassium phosphate and then dialyzed (see above) and concentrated 5- to 10-fold by ultrafiltration (Amicon Diaflo PM 10 Filter) at 4° C. The partially purified HSL can be stored at −70° C. for 4 to 6 weeks.
Preparation of NAG (NBD Monoacyl Glyceride) Substrate:
6 mg of phosphatidylcholine and 6 mg of phosphatidylinositol are each dissolved in 1 ml of chloroform. 10 mg of NAG are dissolved in 1 ml of chloroform. Two parts of phosphatidylinositol solution (e.g. 83.5 μl) and one part of phosphatidylcholine solution (e.g. 41.5 μl) and 100 μl of NAG solution are pipetted together into plastic scintillation vessels (final concentration in the assay: 0.0375 mg of phospholipid/ml; 0.05 mg/NAG/ml). The chloroform (225 μl total volume) is completely removed by passing a stream of N2 over it. The dried substrate can be stored at 4° C. for up to 3 days. To prepare the phospholipid vesicles/micelles with intercalated NAG (on the day of the assay), the dried substrate is taken up in 20 ml of assay buffer (25 mM Tris/HCl, pH 7.4; 150 mM NaCl) and two ultrasound treatments carried out with an ultrasonic probe (Branson Sonifier Type II, standard microtip): 1st treatment setting 2, 2×1 min, in between 1 min on ice each time; 2nd treatment setting 4, 2×1 min, in between 1 min on ice each time. During this procedure, the color of the substrate solution changes from yellow (extinction maximum 481 nm) to red (extinction maximum 550 nm) owing to intercalation of NAG between the phospholipid molecules in the vesicles/micelles. Before use as substrate (within the next 2 h), the solution is incubated on ice for 15 min.
The assay is carried out in 1.5 ml Eppendorf vessels or 96-well plates at 30° C. for 60 min. […]

The source of these data is patent publication US7781613B2, “Substituted N-aminomethylene sulfonamides, production and use thereof as medicaments” (Sanofi-Aventis, priority 2005, dated 2010).

As a reminder, the melting point is the temperature, or range, at which the solid turns liquid. By IC50 is commonly meant the concentration that inhibits the measured activity by half. Read a low IC50 as greater potency.

Turning to `COc1ccc(S(=O)(=O)N=CN(C)C)cc1CN1CC(C)CC(C)C1` (stereo not shown) [Example 8, N-Dimethylaminomethylene-4-methoxy-3-[(3,5-dimethylpiperidino)methyl]benzenesulfonamide], the melting point came to 89 °C.
Same read-out and setting: the figure for `CC1CC(NC(=O)c2ccc(Cl)c(S(=O)(=O)N=CN(C)C)c2)CC(C)(C)C1` (stereo not shown) [Example 10, 4-Chloro-3-(dimethylaminomethylenesulfamoyl)-N-(3,3,5-trimethylcyclohexyl)benzamide] is 180 °C; for `CN(C)C=NS(=O)(=O)c1cc(C(=O)NC2CC(C)(C)NC(C)(C)C2)ccc1Cl` [Example 11, 4-Chloro-3-(dimethylaminomethylenesulfamoyl)-N-(2,2,6,6-tetramethylpiperidin-4-yl)-benzamide] it is 192 °C.
As to `Cc1cc(C)cc(NC(=O)c2ccc(Cl)c(S(=O)(=O)N=CN(C)C)c2)c1` [Example 12, 4-Chloro-3-(dimethylaminomethylenesulfamoyl)-N-(3,5-dimethylphenyl)benzamide], the melting point amounted to 216 °C.
Same read-out and setting: with `CN(C)C=NS(=O)(=O)c1cc(C(=O)NCc2ccccc2Cl)ccc1Cl` [Example 16, 4-Chloro-3-(dimethylaminomethylenesulfamoyl)-N-(2-chlorophenylmethyl)benzamide] the figure was 167 °C.
As for `Cc1cc(C)cc(OCc2ccc(Cl)c(S(=O)(=O)N=CN(C)C)c2)c1` [Example 19, 6-Chloro-N-dimethylaminomethylene-3-[(3,5-dimethylphenoxy)methyl]benzenesulfonamide], the melting point came to 137 °C. This compound also had an IC50 in series [1] of 400 nM.
For the compound `CC1CC(N(Cc2ccc(Cl)c(S(=O)(=O)N=CN(C)C)c2)S(C)(=O)=O)CC(C)(C)C1` (stereo not shown) [Example 21, 6-Chloro-N-dimethylaminomethylene-3-[(N-(3,3,5-trimethylcyclohexyl)-N-methylsulfonylamino)methyl]benzenesulfonamide], the midpoint of inhibition in series [1], the IC50, lay at 500 nM.
Same read-out and setting: the figure for `CC1CC(NS(=O)(=O)c2ccc(Cl)c(S(=O)(=O)N=CN(C)C)c2)CC(C)(C)C1` (stereo not shown) [Example 23, 6-Chloro-N-dimethylaminomethylene-3-(3,3,5-trimethylcyclohexylaminosulfonyl]benzenesulfonamide] is 150 nM.
Turning to `CN(C)C=NS(=O)(=O)c1cc(S(=O)(=O)N2CCCC(C)(C)C2)ccc1Cl` [Example 24, 6-Chloro-N-dimethylaminomethylene-3-(3,3-dimethylpiperidinosulfonyl]-benzenesulfonamide], the melting point came to 123 °C.
Still for that read-out and setting: with `CC1CC(NS(=O)(=O)c2cc(S(=O)(=O)N=CN(C)C)c(C(F)(F)F)cc2N)CC(C)(C)C1` (stereo not shown) [Example 26, 2-Amino-4-trifluoromethyl-5-dimethylaminomethylenesulfamoyl-N-(3,3,5-trimethyl-cyclohexyl)benzenesulfonamide] the figure was > 165 °C (dec.).
With `CCCCN(CCCC)S(=O)(=O)c1cc(S(=O)(=O)N=CN(C)C)c(Cl)cc1N` [Example 28, 2-Amino-4-chloro-5-dimethylaminomethylenesulfamoyl-N-dibutylbenzenesulfonamide], the IC50 in series [1] is 30 nM.
`CC(C)CN(CC(C)C)S(=O)(=O)c1cc(S(=O)(=O)N=CN(C)C)c(Cl)cc1N` [Example 29, 2-Amino-4-chloro-5-dimethylaminomethylenesulfamoyl-N-diisobutylbenzenesulfonamide]: the melting point was found to be 126 °C. Also, the IC50 in series [1] was 700 nM.
In turn, `CC1CC(NS(=O)(=O)c2cc(S(=O)(=O)N=CN(C)C)c(Cl)cc2N)CC(C)(C)C1` (stereo not shown) [Example 32] showed a melting point of 100 °C. The compound also yielded an IC50 in series [1] of 1 nM.
For `C=CCN(C1CCCCC1)S(=O)(=O)c1cc(S(=O)(=O)N=CN(C)C)c(Cl)cc1N` [Example 33, 2-Amino-4-chloro-5-dimethylaminomethylenesulfamoyl-N-cyclohexyl-N-allyl-benzenesulfonamide], in that order: 90 °C and 200 nM.
With `CC(C)N(C1CCCCC1)S(=O)(=O)c1cc(S(=O)(=O)N=CN(C)C)c(Cl)cc1N` [Example 34, 2-Amino-4-chloro-5-dimethylaminomethylenesulfamoyl-N-cyclohexyl-N-isopropyl-benzenesulfonamide], the melting point was 122 °C (dec.).
Still for that read-out and setting: the figure for `CCCCCCCCNS(=O)(=O)c1cc(S(=O)(=O)N=CN(C)C)c(Cl)cc1N` [Example 38, 2-Amino-4-chloro-5-dimethylaminomethylenesulfamoyl-N-octylbenzenesulfonamide] is 110 °C.
As to `CN(C)C=NS(=O)(=O)c1cc(S(=O)(=O)NC2CCCCC2)c(N)cc1C(F)(F)F` [Example 48, 2-Amino-4-trifluoromethyl-5-dimethylaminomethylenesulfamoyl-N-cyclohexyl-benzenesulfonamide], the melting point was > 185 °C (dec.). Also, the IC50 in series [1] came out at 700 nM.
